Results published in patent US6358885B1, “Substituted phenylheterocyclic herbicides” (Mississippi State University, priority 1992, dated 2002).

Columns and labels:
[1] = tested on: soybean; assay: Test C preemergence/postemergence greenhouse plant response rating 0 to 100; format: in vivo, Glycine max; details: POSTEMERGENCE
Outline: (§1)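 Compounds in non-phytotoxic solvent went onto sandy loam before emergence (seeded one day earlier) or onto plants at the one-to-four leaf stage. Duck salad was treated via flood water (~2.5 cm, maintained) over silt loam.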

[2] = tested on: giant foxtail; assay: Test B preemergence/postemergence greenhouse plant response rating 0 to 10; format: in vivo, Setaria faberii; details: 0 to 10 scale
Outline: (§2)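 Test chemicals were sprayed onto freshly planted seed and, concurrently, onto young plants between the one and four leaf stage. After a twelve- to sixteen-day greenhouse period, each species was visually compared with untreated controls.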

[3] = tested on: giant foxtail; assay: Test C preemergence/postemergence greenhouse plant response rating 0 to 100; format: in vivo, Setaria faberii; details: POSTEMERGENCE
Outline: as §1

[4] = tested on: cotton; assay: Test B preemergence/postemergence greenhouse plant response rating 0 to 10; format: in vivo, Gossypium hirsutum; details: 0 to 10 scale
Outline: as §2

[5] = tested on: umbrella sedge; assay: Test C flood test plant response rating 0 to 100; format: in vivo, Cyperus difformis
Outline: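 Compounds in non-phytotoxic solvent applied preemergence to sandy loam one day after planting, postemergence at the 1–4 leaf stage, or to ~2.5 cm floodwater over silt loam.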

[6] = tested on: bedstraw; assay: Test B preemergence/postemergence greenhouse plant response rating 0 to 10; format: in vivo, Galium aparine; details: POSTEMERGENCE, 0 to 10 scale
Outline: as §2

[7] = tested on: cocklebur; assay: as above; format: in vivo, Xanthium pensylvanicum; details: 0 to 10 scale
Outline: as §2

[8] = tested on: duck salad; assay: Test C flood test plant response rating 0 to 100; format: in vivo, Heteranthera limosa
Outline: as §1

[9] = tested on: velvetleaf; assay: Test C preemergence/postemergence greenhouse plant response rating 0 to 100; format: in vivo, Abutilon theophrasti; details: POSTEMERGENCE
Outline: as §1

[10] = tested on: chickweed; assay: as above; format: in vivo, Stellaria media; details: POSTEMERGENCE
Outline: as §1

[11] = tested on: rape; assay: Test B preemergence/postemergence greenhouse plant response rating 0 to 10; format: in vivo, Brassica napus; details: 0 to 10 scale
Outline: as §2

[12] = tested on: lambsquarters; assay: Test C preemergence/postemergence greenhouse plant response rating 0 to 100; format: in vivo, Chenopodium album; details: POSTEMERGENCE
Outline: as §1

[13] = tested on: cheatgrass; assay: Test B preemergence/postemergence greenhouse plant response rating 0 to 10; format: in vivo, Bromus secalinus; details: 0 to 10 scale
Outline: as §2

[14] = tested on: morningglory; assay: as above; format: in vivo, Ipomoea hederacea; details: 0 to 10 scale
Outline: as §2

[15] = tested on: crabgrass; assay: as above; format: in vivo, Digitaria spp.; details: 0 to 10 scale
Outline: as §2

[16] = tested on: pigweed; assay: Test C preemergence/postemergence greenhouse plant response rating 0 to 100; format: in vivo, Amaranthusretroflexus; details: POSTEMERGENCE
Outline: as §1

[17] = tested on: barley; assay: as above; format: in vivo, Hordeum vulgare; details: POSTEMERGENCE
Outline: as §1

[18] = tested on: cotton; assay: as above; format: in vivo, Gossypium hirsutum; details: POSTEMERGENCE
Outline: as §1

[19] = POSTEMERGENCE section, flood test, Rate 1 g/ha
[20] = POSTEMERGENCE section, flood test, Rate 4 g/ha
[21] = Rate 16 g/ha, under POSTEMERGENCE head (flood test species)
[22] = flood test species listed under POSTEMERGENCE, 62 g/ha, 0 to 100 scale

Structure (SMILES): C#CCN1C(=O)COc2cc(F)c(-c3nn4c(c3Cl)CCCC4)cc21 [Compound 34]
- Plant response rating, Soybean ([1]; 62 g/ha, 0 to 100 scale): 100
- Plant response rating (0 to 100), Soybean ([1]; Rate 1 g/ha): 50
- Plant response rating (0 to 100), Soybean ([1]; Rate 4 g/ha): 70
- Plant response rating (0 to 100), Soybean ([1]; Rate 16 g/ha): 100
- Plant response rating, Giant foxtail ([2]; POSTEMERGENCE, Rate 10 g/ha): 4
- Plant response rating, Giant foxtail ([2]; POSTEMERGENCE, Rate 50 g/ha): 5
- Plant response rating, Giant foxtail ([2]; PREEMERGENCE, Rate 10 g/ha): 3
- Plant response rating, Giant foxtail ([2]; PREEMERGENCE, Rate 50 g/ha): 6
- Plant response rating, Giant foxtail ([3]; 62 g/ha, 0 to 100 scale): 70
- Plant response rating (0 to 100), Giant foxtail ([3]; Rate 1 g/ha): 20
- Plant response rating (0 to 100), Giant foxtail ([3]; Rate 4 g/ha): 30
- Plant response rating (0 to 100), Giant foxtail ([3]; Rate 16 g/ha): 40
- Plant response rating, Cotton ([4]; POSTEMERGENCE, Rate 10 g/ha): 10
- Plant response rating, Cotton ([4]; POSTEMERGENCE, Rate 50 g/ha): 10
- Plant response rating, Cotton ([4]; PREEMERGENCE, Rate 10 g/ha): 0
- Plant response rating, Cotton ([4]; PREEMERGENCE, Rate 50 g/ha): 0
- Plant response rating (0 to 100), Umbrella sedge [5, 19]: 0
- Plant response rating (0 to 100), Umbrella sedge [5, 20]: 0
- Plant response rating (0 to 100), Umbrella sedge [5, 21]: 60
- Plant response rating Umbrella sedge [5, 22]: 80
- Plant response rating, Bedstraw ([6]; Rate 10 g/ha): 10
- Plant response rating, Bedstraw ([6]; Rate 50 g/ha): 10
- Plant response rating, Cocklebur ([7]; POSTEMERGENCE, Rate 10 g/ha): 10
- Plant response rating, Cocklebur ([7]; POSTEMERGENCE, Rate 50 g/ha): 1
- Plant response rating, Cocklebur ([7]; PREEMERGENCE, Rate 10 g/ha): 0
- Plant response rating, Cocklebur ([7]; PREEMERGENCE, Rate 50 g/ha): 2
- Plant response rating (0 to 100), Duck salad [8, 19]: 0
- Plant response rating (0 to 100), Duck salad [8, 20]: 0
- Plant response rating (0 to 100), Duck salad [8, 21]: 0
- Plant response rating Duck salad [8, 22]: 40
- Plant response rating, Velvetleaf ([9]; 62 g/ha, 0 to 100 scale): 100
- Plant response rating (0 to 100), Velvetleaf ([9]; Rate 1 g/ha): 100
- Plant response rating (0 to 100), Velvetleaf ([9]; Rate 4 g/ha): 100
- Plant response rating (0 to 100), Velvetleaf ([9]; Rate 16 g/ha): 100
- Plant response rating, Chickweed ([10]; 62 g/ha, 0 to 100 scale): 100
- Plant response rating (0 to 100), Chickweed ([10]; Rate 1 g/ha): 75
- Plant response rating (0 to 100), Chickweed ([10]; Rate 4 g/ha): 75
- Plant response rating (0 to 100), Chickweed ([10]; Rate 16 g/ha): 100
- Plant response rating, Rape ([11]; POSTEMERGENCE, Rate 10 g/ha): 10
- Plant response rating, Rape ([11]; POSTEMERGENCE, Rate 50 g/ha): 10
- Plant response rating, Rape ([11]; PREEMERGENCE, Rate 50 g/ha): 6
- Plant response rating Lambsquarters ([12]; 62 g/ha, 0 to 100 scale): 100
- Plant response rating (0 to 100), Lambsquarters ([12]; Rate 1 g/ha): 80
- Plant response rating (0 to 100), Lambsquarters ([12]; Rate 4 g/ha): 100
- Plant response rating (0 to 100), Lambsquarters ([12]; Rate 16 g/ha): 100
- Plant response rating, Cheatgrass ([13]; POSTEMERGENCE, Rate 10 g/ha): 4
- Plant response rating, Cheatgrass ([13]; POSTEMERGENCE, Rate 50 g/ha): 5
- Plant response rating, Cheatgrass ([13]; PREEMERGENCE, Rate 10 g/ha): 3
- Plant response rating, Cheatgrass ([13]; PREEMERGENCE, Rate 50 g/ha): 6
- Plant response rating, Morningglory ([14]; POSTEMERGENCE, Rate 10 g/ha): 9
- Plant response rating, Morningglory ([14]; POSTEMERGENCE, Rate 50 g/ha): 1
- Plant response rating, Morningglory ([14]; PREEMERGENCE, Rate 50 g/ha): 2
- Plant response rating, Crabgrass ([15]; POSTEMERGENCE, Rate 10 g/ha): 3
- Plant response rating, Crabgrass ([15]; POSTEMERGENCE, Rate 50 g/ha): 4
- Plant response rating, Crabgrass ([15]; PREEMERGENCE, Rate 10 g/ha): 3
- Plant response rating, Crabgrass ([15]; PREEMERGENCE, Rate 50 g/ha): 9
- Plant response rating Pigweed ([16]; 62 g/ha, 0 to 100 scale): 100
- Plant response rating (0 to 100), Pigweed ([16]; Rate 1 g/ha): 90
- Plant response rating (0 to 100), Pigweed ([16]; Rate 4 g/ha): 100
- Plant response rating (0 to 100), Pigweed ([16]; Rate 16 g/ha): 100
- Plant response rating Barley Igri ([17]; 62 g/ha, 0 to 100 scale): 40
- Plant response rating (0 to 100), Barley Igri ([17]; Rate 1 g/ha): 20
- Plant response rating (0 to 100), Barley Igri ([17]; Rate 4 g/ha): 30
- Plant response rating (0 to 100), Barley Igri ([17]; Rate 16 g/ha): 40
- Plant response rating, Cotton ([18]; 62 g/ha, 0 to 100 scale): 100
- Plant response rating (0 to 100), Cotton ([18]; Rate 1 g/ha): 100
- Plant response rating (0 to 100), Cotton ([18]; Rate 4 g/ha): 100
- Plant response rating (0 to 100), Cotton ([18]; Rate 16 g/ha): 100
